Laboratory results: US9168281B2, “Kit for treating a wound” (priority 2011, dated 2015)

Key:
Test in all cases: Phenol Red Dextrose broth growth test of product containing CPC
Format in all cases: cell-based
Conditions in all cases: 37° C., 24 hours
[1] = tested on: Proteus vulgaris
Method: (§1) Phenol Red Dextrose broth tubes were prepared and a small loop of an organism cultured in peptone broth for 24 hours at 37° C. was used to inoculate the tubes in duplicate to a series of ten. […] The inoculated tubes were incubated at a temperature of 37° C. for 24 hours and growth of organism assessed compared to an inoculated tube without presence of product.

[2] = tested on: Strep equi
Method: as §1

[3] = tested on: Strep pyogenes
Method: as §1

[4] = tested on: Candida albicans
Method: as §1

[5] = tested on: Staph aureus (MRSA)
Method: as §1

[6] = tested on: Staph aureus (non MRSA)
Method: as §1

[7] = tested on: P. aeruginosa
Method: as §1

Measured: growth of organism

CCCCCCCCCCCCCCCC[n+]1ccccc1 [CPC, cetyl pyridinium chloride]
n/g: [1]; 0.1 mL CPC (0.004% vol. comp) | [1]; 0.2 mL CPC (0.008% vol. comp) | [1]; 0.3 mL CPC (0.016% vol. comp) | [1]; 0.4 mL CPC (0.032% vol. comp) | [1]; 0.5 mL CPC (0.064% vol. comp) | [1]; 0.6 mL CPC (0.128% vol. comp) | [1]; 0.7 mL CPC (0.256% vol. comp) | [1]; 0.8 mL CPC (0.512% vol. comp) | [1]; 0.9 mL CPC (1.024% vol. comp) | [1]; 1.0 mL CPC (2.048% vol. comp) | [2]; 0.1 mL CPC (0.004% vol. comp) | [2]; 0.2 mL CPC (0.008% vol. comp) | [2]; 0.3 mL CPC (0.016% vol. comp) | [2]; 0.4 mL CPC (0.032% vol. comp) | [2]; 0.5 mL CPC (0.064% vol. comp) | [2]; 0.6 mL CPC (0.128% vol. comp) | [2]; 0.7 mL CPC (0.256% vol. comp) | [2]; 0.8 mL CPC (0.512% vol. comp) | [2]; 0.9 mL CPC (1.024% vol. comp) | [2]; 1.0 mL CPC (2.048% vol. comp) | [3]; 0.1 mL CPC (0.004% vol. comp) | [3]; 0.2 mL CPC (0.008% vol. comp) | [3]; 0.3 mL CPC (0.016% vol. comp) | [3]; 0.4 mL CPC (0.032% vol. comp) | [3]; 0.5 mL CPC (0.064% vol. comp) | [3]; 0.6 mL CPC (0.128% vol. comp) | [3]; 0.7 mL CPC (0.256% vol. comp) | [3]; 0.8 mL CPC (0.512% vol. comp) | [3]; 0.9 mL CPC (1.024% vol. comp) | [3]; 1.0 mL CPC (2.048% vol. comp) | [4]; 0.1 mL CPC (0.004% vol. comp) | [4]; 0.2 mL CPC (0.008% vol. comp) | [4]; 0.3 mL CPC (0.016% vol. comp) | [4]; 0.4 mL CPC (0.032% vol. comp) | [4]; 0.5 mL CPC (0.064% vol. comp) | [4]; 0.6 mL CPC (0.128% vol. comp) | [4]; 0.7 mL CPC (0.256% vol. comp) | [4]; 0.8 mL CPC (0.512% vol. comp) | [4]; 0.9 mL CPC (1.024% vol. comp) | [4]; 1.0 mL CPC (2.048% vol. comp) | [5]; 0.1 mL CPC (0.004% vol. comp) | [5]; 0.2 mL CPC (0.008% vol. comp) | [5]; 0.3 mL CPC (0.016% vol. comp) | [5]; 0.4 mL CPC (0.032% vol. comp) | [5]; 0.5 mL CPC (0.064% vol. comp) | [5]; 0.6 mL CPC (0.128% vol. comp) | [5]; 0.7 mL CPC (0.256% vol. comp) | [5]; 0.8 mL CPC (0.512% vol. comp) | [5]; 0.9 mL CPC (1.024% vol. comp) | [5]; 1.0 mL CPC (2.048% vol. comp) | [6]; 0.1 mL CPC (0.004% vol. comp) | [6]; 0.2 mL CPC (0.008% vol. comp) | [6]; 0.3 mL CPC (0.016% vol. comp) | [6]; 0.4 mL CPC (0.032% vol. comp) | [6]; 0.5 mL CPC (0.064% vol. comp) | [6]; 0.6 mL CPC (0.128% vol. comp) | [6]; 0.7 mL CPC (0.256% vol. comp) | [6]; 0.8 mL CPC (0.512% vol. comp) | [6]; 0.9 mL CPC (1.024% vol. comp) | [6]; 1.0 mL CPC (2.048% vol. comp) | [7]; 0.1 mL CPC (0.004% vol. comp) | [7]; 0.2 mL CPC (0.008% vol. comp) | [7]; 0.3 mL CPC (0.016% vol. comp) | [7]; 0.4 mL CPC (0.032% vol. comp) | [7]; 0.5 mL CPC (0.064% vol. comp) | [7]; 0.6 mL CPC (0.128% vol. comp) | [7]; 0.7 mL CPC (0.256% vol. comp) | [7]; 0.8 mL CPC (0.512% vol. comp) | [7]; 0.9 mL CPC (1.024% vol. comp) | [7]; 1.0 mL CPC (2.048% vol. comp)
